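Method: 48-hour compound exposure of cells in 96-well plates, five concentrations, linear interpolation of endpoints. GI50 marks 50% less growth. TGI denotes the concentration required for complete inhibition of growth.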
Legend:
Test in all cases: NCI-60 cell line screen, 48 h
A549 NSCLC = tested on: A549 NSCLC
EKVX NSCLC = tested on: EKVX NSCLC
HOP-92 NSCLC = tested on: HOP-92 NSCLC
HT29 colon = tested on: HT29 colon
OVCAR-5 ovarian = tested on: OVCAR-5 ovarian
OVCAR-8 ovarian = tested on: OVCAR-8 ovarian
SF-539 CNS = tested on: SF-539 CNS
TK-10 renal = tested on: TK-10 renal
BT-549 breast = tested on: BT-549 breast
DU-145 prostate = tested on: DU-145 prostate

Compound | TGI (A549 NSCLC) [µM] | TGI (EKVX NSCLC) [µM] | TGI (HOP-92 NSCLC) [µM] | TGI (HT29 colon) [µM] | TGI (OVCAR-5 ovarian) [µM] | TGI (OVCAR-8 ovarian) [µM] | TGI (SF-539 CNS) [µM] | TGI (TK-10 renal) [µM] | GI50 (A549 NSCLC) [µM] | GI50 (HT29 colon) [µM] | GI50 (OVCAR-5 ovarian) [µM] | GI50 (OVCAR-8 ovarian) [µM] | GI50 (SF-539 CNS) [µM] | GI50 (TK-10 renal) [µM] | GI50 (BT-549 breast) [µM] | TGI (BT-549 breast) [µM] | GI50 (DU-145 prostate) [µM] | TGI (DU-145 prostate) [µM] | GI50 (EKVX NSCLC) [µM] | GI50 (HOP-92 NSCLC) [µM]
O=C1c2ccccc2C2CCC1c1ccccc12 (centres undefined) | > 100 | > 100 | 72.2 | > 100 | > 100 | > 100 | > 100 | 93.9 |  |  |  |  |  |  |  |  |  |  |  | 
O=C(Nc1ccc(Cl)cc1Cl)OC(Cn1cncn1)c1ccc(Cl)cc1Cl (centres undefined) | 33 | 31.5 |  | 28.5 |  | 31.8 | 32.5 |  |  |  |  |  |  |  |  |  |  |  |  | 
O=C(/C=C\c1cccc2ccccc12)c1ccc(Cl)cc1Cl | > 100 | > 100 |  | 35.8 | 72.3 | 37.3 | 53.2 | > 100 |  |  |  |  |  |  |  |  |  |  |  | 
N#CC(C(=O)/C(=N\NC(N)=O)C(C#N)c1ccccc1)c1ccccc1 (centres undefined) | > 100 | > 100 | > 100 | > 100 | > 100 | > 100 | > 100 | > 100 |  |  |  |  |  |  |  |  |  |  |  | 
CC(=O)[C@H]1CCC2[C@@H]3CC=C4C[C@@H]([O-])CC[C@]4(C)C3CC[C@@]21C.CC(=O)[C@H]1CCC2[C@@H]3CC=C4C[C@@H]([O-])CC[C@]4(C)C3CC[C@@]21C.CC(=O)[CH-]C(=O)c1ccccc1.CC(=O)[CH-]C(=O)c1ccccc1.Cl.[Ti+4] (some centres undefined) | > 100 |  |  | > 100 | > 100 | 79.2 |  | > 100 | 23.6 | 14.2 | > 100 | 19.8 | 9.44 | 40.7 |  |  |  |  |  | 
COc1cccc(Nc2nc3ccccc3c3occc23)c1 | 22.4 | 36.9 | 31.1 |  | 32.9 | 42.7 | 35.1 | 17.2 | 6.01 |  | 14.1 | 15.8 | 17.3 | 5.79 | 10.4 | 23 | 10.9 | 22.9 | 14.3 | 13
N/N=C(/Cc1nc2ccc(C(=O)c3ccccc3)cc2[nH]c1=O)C(=O)Nc1ccc([N+](=O)[O-])cc1[N+](=O)[O-] | > 100 | > 100 |  | > 100 | > 100 | > 100 | > 100 | > 100 | > 100 | > 100 | > 100 |  |  |  |  |  |  |  |  | 
CC1NC(=O)C2=C1C(=O)NC(=O)C2 (centres undefined) | > 100 | > 100 | > 100 |  | > 100 | > 100 | > 100 | > 100 | > 100 |  | > 100 | > 100 | > 100 | > 100 | > 100 | > 100 | > 100 | > 100 | > 100 | > 100
Clc1cccc(C2N3CCCCC3[C@@H]3c4[nH]c5ccccc5c4CCN23)c1 (some centres undefined) | > 100 | > 100 | > 100 | 34.2 | 55.5 | > 100 | 57.7 | > 100 |  |  |  |  |  |  |  |  |  |  |  | 
O=C1O/C(=C/c2ccccc2)C(c2ccccc2)=C1O | > 100 | > 100 | > 100 | > 100 | > 100 | > 100 | > 100 | > 100 |  |  |  |  |  |  |  |  |  | 97 |  | 
Cc1nc2c(o1)C(=Nc1ccccc1)c1nc(C)oc1C2=Nc1ccccc1 | 54.1 |  | 44.1 | 45.5 | 92.4 | 34.3 | 27.3 | > 100 |  |  |  |  |  |  |  |  |  |  |  | 
CN(/N=C/c1ccnc2ccccc12)c1c([N+](=O)[O-])cc([N+](=O)[O-])cc1[N+](=O)[O-] | > 100 | > 100 | > 100 | > 100 | > 100 | > 100 | > 100 | > 100 |  |  |  |  |  |  |  |  |  |  |  | 
Nc1ccccc1C(=O)CCC1C(=O)NC(=S)NC1=O | > 100 | > 100 | > 100 | > 100 | > 100 | > 100 | > 100 | > 100 |  |  |  |  |  |  |  |  |  | > 100 |  | 
O=C(/C=C/c1cccc([N+](=O)[O-])c1)c1ccc([N+](=O)[O-])cc1 | > 100 | > 100 |  | > 100 | > 100 | > 100 | > 100 | > 100 |  |  |  |  |  |  |  |  |  |  |  | 
COC(=O)C1C(=O)O[C@@H](c2cc(OC)c(OC)cc2OC)C1C(=O)OC (mixture of isomers) | > 100 | > 100 | > 100 | > 100 | > 100 | > 100 | > 100 | > 100 |  |  |  |  |  |  |  |  |  |  |  | 
COc1ccc(S(=O)(=O)N(CC(=O)O)c2ccccc2)cc1 | > 100 | > 100 | > 100 | > 100 | > 100 | > 100 | > 100 | > 100 |  |  |  |  |  |  |  |  |  |  |  | 
Clc1cccc(-c2nnc(-c3nn(-c4ccccc4)c4nc5ccccc5nc34)o2)c1 | > 100 | > 100 |  | > 100 | > 100 | > 100 | > 100 | > 100 |  |  |  |  |  |  |  |  |  |  |  | 
COC(=O)C1=CC2C=CC(C1C(=O)OC)C1C(C(=O)OC)=C(C(=O)OC)C(C(=O)OC)=C(C(=O)OC)C21OC (centres undefined) | > 100 | > 100 | > 100 | > 100 | > 100 | > 100 | > 100 | > 100 |  |  |  |  |  |  |  |  |  |  |  | 
CC(=O)[CH-]C(=O)c1ccccc1.CC(=O)[CH-]C(=O)c1ccccc1.O=S(=O)([O-])c1cc([O-])c2c([O-])cc(S(=O)(=O)[O-])cc2c1.[Na+].[Zr+4] | > 100 | > 100 |  | > 100 | > 100 | > 100 | > 100 |  | > 100 | > 100 | > 100 | > 100 | > 100 |  |  |  |  |  | > 100 | 
CCN(CC)CCCC(C)N/C(=C1\C(=O)NC(=O)\C1=C(/NC(C)CCCN(CC)CC)c1cccc(OC)c1)c1cccc(OC)c1 (centres undefined) | 1.8 |  | 1.76 | 2.01 | 3.42 | 3.09 | 1.51 |  | 0.819 | 0.372 | 1.16 | 0.515 | 0.791 |  | 1.31 | 3.82 | 1.02 | 4.5 |  | 0.642
CCNC(=O)OCc1c(COC(=O)NCC)c(-c2ccc(Cl)c(Cl)c2)n2c1CCC2 | 82.3 |  | 24.4 | > 100 | 59.1 | 41.7 | 25.6 | 54.5 |  |  |  |  |  |  |  |  |  |  |  | 

Source: PubChem BioAssay (NCI)
